Data published in patent US20080009418A1, “Selective Inhibitors” (Alchemia LTD., priority 2004, published 2008).

Tests used:
[1] = molecular target: T1, Human melanin-concentrating hormone (MCH1) (Homo sapiens, UniProt Q99705); experiment: Radioligand binding, human melanin-concentrating hormone MCH1 membranes, FlashPlate, [125I]-S36057; conditions: compound at 10 μM; for A6 radioligand binding, percentage inhibition: [125I]-S36057
T1 construct: purchased Perkin Elmer Biosignal
Method in brief: (§1)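 Cloned human receptor membranes were coated onto FlashPlate wells and incubated with radioligand and compound (added from a 0.5 mM DMSO daughter plate) for 1 hour at room temperature in the dark. Scintillation counting gave percent inhibition, with DMSO defining total and reference ligand defining non-specific binding.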

Human Melanocortin (MC4) = molecular target: T2, Human Melanocortin (MC4) (Homo sapiens, UniProt P32245); experiment: Radioligand binding, human melanocortin MC4 membranes, FlashPlate, [125I]-NDP-αMSH; conditions: compound at 10 μM; for A4 radioligand binding, percentage inhibition: [125I]-NDP-αMSH
T2 construct: purchased Perkin Elmer Biosignal
Method in brief: as §1

Mouse urotensin (mUR2) = molecular target: T3, Mouse urotensin (mUR2) (Mus musculus, UniProt Q8VIH9); experiment: Radioligand binding, mouse urotensin mUR2 membranes, FlashPlate, [125I]-Urotensin II; conditions: compound at 10 μM; for A11 radioligand binding, percentage inhibition: [125I]-Urotensin II
T3 construct: purchased Perkin Elmer Biosignal
T3 sequence (Q8VIH9 1-385): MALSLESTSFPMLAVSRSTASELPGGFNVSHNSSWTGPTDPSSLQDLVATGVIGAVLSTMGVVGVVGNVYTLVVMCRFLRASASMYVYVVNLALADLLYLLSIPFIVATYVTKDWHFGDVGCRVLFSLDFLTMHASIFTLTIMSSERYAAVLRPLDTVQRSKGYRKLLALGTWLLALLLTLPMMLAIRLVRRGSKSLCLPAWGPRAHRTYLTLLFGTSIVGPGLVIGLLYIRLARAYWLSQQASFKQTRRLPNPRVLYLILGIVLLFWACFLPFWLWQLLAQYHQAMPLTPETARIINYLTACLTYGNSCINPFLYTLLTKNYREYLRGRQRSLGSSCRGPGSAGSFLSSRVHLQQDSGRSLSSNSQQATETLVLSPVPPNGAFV
Method in brief: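 Cloned mouse urotensin (mUR2) receptor membranes from Perkin Elmer Biosignal were immobilized in FlashPlate microplates using a proprietary coating. Each well got 19.5 μl buffer, then 0.5 μl of DMSO, reference ligand, or compound. Adding 5 μl of [125I]-Urotensin II, diluted to 5× final concentration in binding buffer, started binding. Plates were sealed with TopSeal-A and incubated 1 hour at room temperature in the dark. Wells were counted for 30 seconds each on a TopCount after a 60-second delay, and percentage inhibition was calculated.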

Human opioid (ORL1) = molecular target: T4, Human opioid (ORL1) (Homo sapiens, UniProt P41146); experiment: Radioligand binding, human opioid ORL1 membranes, FlashPlate, [125I]-Nociceptin; conditions: compound at 10 μM; for A10 radioligand binding, percentage inhibition: [125I]-Nociceptin
T4 construct: purchased Perkin Elmer Biosignal
Method in brief: as §1

Human melanocortin (MC5) = molecular target: T5, Human melanocortin (MC5) (Homo sapiens, UniProt P33032); experiment: Radioligand binding, human melanocortin MC5 membranes, FlashPlate, [125I]-NDP-αMSH; conditions: compound at 10 μM; for A5 radioligand binding, percentage inhibition: [125I]-NDP-αMSH
T5 construct: purchased Perkin Elmer Biosignal
Method in brief: as §1

Human δ-opioid (DOP) = molecular target: T6, Human δ-opioid (DOP) (Homo sapiens, UniProt P41143); experiment: Radioligand binding, human δ-opioid (DOP) membranes, FlashPlate, [3H]-Bremazocine; conditions: compound at 10 μM; for A1 radioligand binding, percentage inhibition: [3H]-Bremazocine
T6 construct: purchased Perkin Elmer Biosignal
Method in brief: as §1

Human Melanocortin (MC3) = molecular target: T7, Human Melanocortin (MC3) (Homo sapiens, UniProt P41968); experiment: Radioligand binding, human melanocortin MC3 membranes, FlashPlate, [125I]-NDP-αMSH; conditions: compound at 10 μM; for A3 radioligand binding, percentage inhibition: [125I]-NDP-αMSH
T7 construct: purchased Perkin Elmer Biosignal
Method in brief: as §1

Human μ-opioid (MOP) = molecular target: T8, Human μ-opioid (MOP) (Homo sapiens, UniProt P35372); experiment: Radioligand binding, human μ-opioid (MOP) membranes, FlashPlate, [3H]-Naloxone; conditions: compound at 10 μM; for A7 radioligand binding, percentage inhibition: [3H]-Naloxone
T8 construct: purchased Perkin Elmer Biosignal
Method in brief: as §1

Human neurokinin (NK1) = molecular target: T9, Human neurokinin (NK1) (Homo sapiens, UniProt P25103); experiment: Radioligand binding, human neurokinin NK1 membranes, filtration, [125I]-Substance P; conditions: compound at 10 μM; for A8 radioligand binding, percentage inhibition: [125I]-Substance P
T9 construct: purchased Perkin Elmer Biosignal
Method in brief: (§2)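 Membranes from cloned human receptors were incubated with compound and radioligand for 1 hour at room temperature. Bound ligand was collected on 0.3% PEI-soaked filters, washed with cold 50 mM Tris-HCl pH 7.4, and counted by scintillation. Percent inhibition was computed against DMSO totals and reference-ligand nonspecific wells.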

[2] = molecular target: T10, Human neuropeptide Y (NPY-Y1) (Homo sapiens, UniProt P25929); experiment: Radioligand binding, human neuropeptide Y NPY-Y1 membranes, FlashPlate, [125I]-PYY; conditions: compound at 10 μM; for A9 radioligand binding, percentage inhibition: [125I]-PYY
T10 construct: purchased Perkin Elmer Biosignal
T10 sequence (P25929 1-384): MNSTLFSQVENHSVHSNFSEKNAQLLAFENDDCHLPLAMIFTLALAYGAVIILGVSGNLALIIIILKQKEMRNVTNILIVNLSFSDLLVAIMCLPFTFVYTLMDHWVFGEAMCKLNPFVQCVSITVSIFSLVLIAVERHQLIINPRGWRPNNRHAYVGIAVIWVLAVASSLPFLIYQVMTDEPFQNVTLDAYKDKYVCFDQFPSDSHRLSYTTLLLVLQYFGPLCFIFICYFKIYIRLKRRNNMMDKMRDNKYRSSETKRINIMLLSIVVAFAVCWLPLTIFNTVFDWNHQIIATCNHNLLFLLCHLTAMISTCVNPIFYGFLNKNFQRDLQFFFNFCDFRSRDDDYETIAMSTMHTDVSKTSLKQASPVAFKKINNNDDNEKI
Method in brief: as §1

Human κ-Opioid (KOP) = molecular target: T11, Human κ-Opioid (KOP) (Homo sapiens, UniProt P41145); experiment: Radioligand binding, human κ-opioid (KOP) membranes, filtration, [3H]-Diprenorphine; conditions: compound at 10 μM; for A2 radioligand binding, percentage inhibition: [3H]-Diprenorphine
T11 construct: purchased Perkin Elmer Biosignal
Method in brief: as §2

T8 sequence (P35372 whole entry): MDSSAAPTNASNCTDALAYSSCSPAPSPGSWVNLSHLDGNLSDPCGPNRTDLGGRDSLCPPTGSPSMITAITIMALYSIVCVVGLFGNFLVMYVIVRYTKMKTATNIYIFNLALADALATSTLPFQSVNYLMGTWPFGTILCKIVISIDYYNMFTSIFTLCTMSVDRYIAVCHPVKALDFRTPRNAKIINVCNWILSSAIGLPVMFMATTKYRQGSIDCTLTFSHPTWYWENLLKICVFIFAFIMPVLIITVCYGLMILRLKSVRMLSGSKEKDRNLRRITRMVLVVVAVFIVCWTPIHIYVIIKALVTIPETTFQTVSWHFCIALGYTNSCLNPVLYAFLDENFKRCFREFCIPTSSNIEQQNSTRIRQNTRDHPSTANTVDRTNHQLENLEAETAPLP
T9 sequence (P25103 whole entry): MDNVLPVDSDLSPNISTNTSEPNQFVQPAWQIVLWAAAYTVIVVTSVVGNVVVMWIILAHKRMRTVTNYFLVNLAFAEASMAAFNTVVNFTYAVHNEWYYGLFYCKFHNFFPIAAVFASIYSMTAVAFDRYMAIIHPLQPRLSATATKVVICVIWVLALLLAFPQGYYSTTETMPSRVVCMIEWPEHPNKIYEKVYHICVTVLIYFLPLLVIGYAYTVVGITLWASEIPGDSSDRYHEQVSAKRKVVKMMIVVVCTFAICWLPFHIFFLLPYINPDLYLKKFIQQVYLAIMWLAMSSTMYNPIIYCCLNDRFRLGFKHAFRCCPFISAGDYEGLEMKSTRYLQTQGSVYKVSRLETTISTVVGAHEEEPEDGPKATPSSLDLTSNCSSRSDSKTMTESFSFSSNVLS
T4 sequence (P41146 whole entry): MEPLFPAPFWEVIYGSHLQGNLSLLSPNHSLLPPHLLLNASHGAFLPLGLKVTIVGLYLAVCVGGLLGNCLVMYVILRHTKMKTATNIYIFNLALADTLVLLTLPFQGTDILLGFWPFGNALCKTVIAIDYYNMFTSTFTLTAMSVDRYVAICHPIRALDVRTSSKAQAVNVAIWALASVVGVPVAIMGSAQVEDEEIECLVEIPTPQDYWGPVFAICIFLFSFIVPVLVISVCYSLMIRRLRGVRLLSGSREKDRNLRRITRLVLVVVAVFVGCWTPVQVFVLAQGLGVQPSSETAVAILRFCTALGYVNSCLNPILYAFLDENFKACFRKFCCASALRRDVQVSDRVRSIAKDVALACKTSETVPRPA
T7 sequence (P41968 whole entry): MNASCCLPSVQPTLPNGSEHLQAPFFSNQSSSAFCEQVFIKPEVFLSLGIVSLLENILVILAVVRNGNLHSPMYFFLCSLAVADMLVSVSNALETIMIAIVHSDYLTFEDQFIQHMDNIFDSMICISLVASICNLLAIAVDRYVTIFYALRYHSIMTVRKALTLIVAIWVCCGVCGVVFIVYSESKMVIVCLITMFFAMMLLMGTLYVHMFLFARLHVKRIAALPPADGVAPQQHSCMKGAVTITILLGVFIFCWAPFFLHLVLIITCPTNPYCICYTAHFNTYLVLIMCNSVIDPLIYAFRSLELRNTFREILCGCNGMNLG
T5 sequence (P33032 whole entry): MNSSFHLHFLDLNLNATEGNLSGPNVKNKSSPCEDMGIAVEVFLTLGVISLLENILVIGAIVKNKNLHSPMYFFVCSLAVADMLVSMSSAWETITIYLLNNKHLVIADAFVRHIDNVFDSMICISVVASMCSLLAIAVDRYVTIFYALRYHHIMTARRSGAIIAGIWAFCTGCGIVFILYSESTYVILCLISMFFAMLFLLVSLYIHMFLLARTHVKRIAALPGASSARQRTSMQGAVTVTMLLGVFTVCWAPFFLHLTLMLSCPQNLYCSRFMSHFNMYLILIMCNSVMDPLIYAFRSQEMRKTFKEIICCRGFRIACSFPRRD
T2 sequence (P32245 whole entry): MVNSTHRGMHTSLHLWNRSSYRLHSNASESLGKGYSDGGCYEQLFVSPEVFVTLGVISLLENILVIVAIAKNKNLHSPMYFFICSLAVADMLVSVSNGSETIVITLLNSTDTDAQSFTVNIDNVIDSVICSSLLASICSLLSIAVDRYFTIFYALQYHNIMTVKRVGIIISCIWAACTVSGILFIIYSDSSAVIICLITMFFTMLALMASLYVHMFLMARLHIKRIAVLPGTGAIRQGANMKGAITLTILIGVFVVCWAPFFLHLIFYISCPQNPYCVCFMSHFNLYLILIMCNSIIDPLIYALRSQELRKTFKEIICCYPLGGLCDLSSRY
T6 sequence (P41143 whole entry): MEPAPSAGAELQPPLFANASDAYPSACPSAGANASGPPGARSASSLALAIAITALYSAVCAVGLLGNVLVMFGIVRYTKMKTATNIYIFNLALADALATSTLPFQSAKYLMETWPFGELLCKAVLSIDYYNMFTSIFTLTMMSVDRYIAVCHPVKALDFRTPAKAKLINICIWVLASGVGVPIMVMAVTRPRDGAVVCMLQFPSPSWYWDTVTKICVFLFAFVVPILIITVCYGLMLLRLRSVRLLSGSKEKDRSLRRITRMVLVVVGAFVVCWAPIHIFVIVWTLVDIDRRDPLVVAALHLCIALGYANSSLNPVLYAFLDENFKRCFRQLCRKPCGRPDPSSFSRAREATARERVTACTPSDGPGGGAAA
T11 sequence (P41145 whole entry): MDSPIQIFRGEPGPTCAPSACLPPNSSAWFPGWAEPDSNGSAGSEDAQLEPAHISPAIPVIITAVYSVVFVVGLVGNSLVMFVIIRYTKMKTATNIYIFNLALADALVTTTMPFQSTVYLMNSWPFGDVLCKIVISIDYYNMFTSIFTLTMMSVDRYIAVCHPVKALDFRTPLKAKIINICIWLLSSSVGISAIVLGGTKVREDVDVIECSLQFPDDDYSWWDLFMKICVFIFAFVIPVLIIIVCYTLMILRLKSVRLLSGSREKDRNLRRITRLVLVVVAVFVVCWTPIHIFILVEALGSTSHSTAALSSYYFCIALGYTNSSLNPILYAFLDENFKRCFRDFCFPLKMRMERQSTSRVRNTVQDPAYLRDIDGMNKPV
T1 sequence (Q99705 whole entry): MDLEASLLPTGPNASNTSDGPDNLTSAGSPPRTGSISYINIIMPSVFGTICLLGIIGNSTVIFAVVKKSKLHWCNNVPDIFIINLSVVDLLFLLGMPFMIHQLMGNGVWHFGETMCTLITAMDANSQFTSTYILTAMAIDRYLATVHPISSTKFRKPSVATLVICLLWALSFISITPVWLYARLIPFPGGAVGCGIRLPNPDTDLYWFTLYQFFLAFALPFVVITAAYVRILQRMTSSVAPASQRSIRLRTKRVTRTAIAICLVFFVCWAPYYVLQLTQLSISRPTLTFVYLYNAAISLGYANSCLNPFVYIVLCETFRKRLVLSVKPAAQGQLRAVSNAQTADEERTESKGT

SMILES | A6 radioligand binding, percentage inhibition [1] | A4 radioligand binding, percentage inhibition (Human Melanocortin (MC4)) | A11 radioligand binding, percentage inhibition (Mouse urotensin (mUR2)) | A10 radioligand binding, percentage inhibition (Human opioid (ORL1)) | A5 radioligand binding, percentage inhibition (Human melanocortin (MC5)) | A1 radioligand binding, percentage inhibition (Human δ-opioid (DOP)) | A3 radioligand binding, percentage inhibition (Human Melanocortin (MC3)) | A7 radioligand binding, percentage inhibition (Human μ-opioid (MOP)) | A8 radioligand binding, percentage inhibition (Human neurokinin (NK1)) | A9 radioligand binding, percentage inhibition [2] | A2 radioligand binding, percentage inhibition (Human κ-Opioid (KOP)) | also measured
COC[C@H]1OC(OCc2ccc3ccccc3c2)[C@H](NC(=O)CCCN)[C@@H](OCc2cccc(O)c2)[C@@H]1O (stereo partly drawn) [compound 134] | − (“−” indicates less than 50% inhibition at 10 μM) | − (“−” indicates less than 50% inhibition at 10 μM) | − (“−” indicates less than 50% inhibition at 10 μM) | − (“−” indicates less than 50% inhibition at 10 μM) | − (“−” indicates less than 50% inhibition at 10 μM) | − (“−” indicates less than 50% inhibition at 10 μM) | − (“−” indicates less than 50% inhibition at 10 μM) | + (“+” indicates greater than 50% inhibition at 10 μM) | − (“−” indicates less than 50% inhibition at 10 μM) | − (“−” indicates less than 50% inhibition at 10 μM) | − (“−” indicates less than 50% inhibition at 10 μM) | 
COCC1OC(OCc2ccccc2)C(NC(=O)CCCNC(=N)N)C(OCc2ccc(-c3ccccc3)cc2)C1O (stereo not drawn) [compound 187] | + (“+” indicates greater than 50% inhibition at 10 μM) | + (“+” indicates greater than 50% inhibition at 10 μM) | − (“−” indicates less than 50% inhibition at 10 μM) | − (“−” indicates less than 50% inhibition at 10 μM) | + (“+” indicates greater than 50% inhibition at 10 μM) | − (“−” indicates less than 50% inhibition at 10 μM) | − (“−” indicates less than 50% inhibition at 10 μM) | − (“−” indicates less than 50% inhibition at 10 μM) | + (“+” indicates greater than 50% inhibition at 10 μM) | − (“−” indicates less than 50% inhibition at 10 μM) | − (“−” indicates less than 50% inhibition at 10 μM) | 
CO[C@H]1[C@H](O)[C@@H](COCc2ccc(Cl)cc2)OC(OCc2ccccc2)[C@@H]1NC(=O)CCNC(=N)N (stereo partly drawn) [compound 91] |  |  |  |  |  |  |  |  |  |  |  | A6 radioligand binding inhibition ([1]; human MCH1 membranes): − (“−” indicates less than 50% inhibition at 10 μM); A4 radioligand binding inhibition (Human Melanocortin (MC4); human melanocortin MC4 membranes): − (“−” indicates less than 50% inhibition at 10 μM); A11 radioligand binding inhibition (Mouse urotensin (mUR2); mouse urotensin mUR2 membranes): − (“−” indicates less than 50% inhibition at 10 μM); A10 radioligand binding inhibition (Human opioid (ORL1); human ORL1 membranes): − (“−” indicates less than 50% inhibition at 10 μM); A5 radioligand binding inhibition (Human melanocortin (MC5); human melanocortin MC5 membranes): − (“−” indicates less than 50% inhibition at 10 μM); A1 radioligand binding inhibition (Human δ-opioid (DOP); human δ-opioid (DOP) membranes): − (“−” indicates less than 50% inhibition at 10 μM); A3 radioligand binding inhibition (Human Melanocortin (MC3); human melanocortin MC3 membranes): − (“−” indicates less than 50% inhibition at 10 μM); A7 radioligand binding inhibition (Human μ-opioid (MOP); human μ-opioid (MOP) membranes): − (“−” indicates less than 50% inhibition at 10 μM); A8 radioligand binding inhibition (Human neurokinin (NK1); human neurokinin NK1 membranes): + (“+” indicates greater than 50% inhibition at 10 μM); A9 radioligand binding inhibition ([2]; human NPY-Y1 membranes): − (“−” indicates less than 50% inhibition at 10 μM); A2 radioligand binding inhibition (Human κ-Opioid (KOP); human κ-opioid (KOP) membranes): − (“−” indicates less than 50% inhibition at 10 μM)
